Counter-ions that a name gives are not always drawn.

Assay [1] addresses T1, full-length proMMP9(1-707) (SEQ ID NO:1) (Homo sapiens, UniProt P14780, R574P).
T1 construct: made in house; host or cells: HEK293 (proMMP9, secreted); E. coli (MMP3)
The assay can be described thus: proMMP9/MMP3 P126 Activation Assay. The assay is classed as biochemical. The following applies: 20 nM proMMP9, 20 nM MMP3, 80 min 37° C. The protocol: The reaction volume was 50 μL. […] Reactivity of residual MMP3 towards P-126 substrate was minimal under these conditions.

Assay [2] deals with proMMP13(1-268) (SEQ ID NO:7) (Homo sapiens, UniProt P45452). The assay can be described thus: ProMMP13/Plasmin P126 Activation Assay. The assay is classed as biochemical. Also noted: 6xHis (C); made in house; host or cells: HEK293 (transient, secreted). The following applies: 8 nM proMMP13, 16 nM plasmin, 40 min 37° C. The protocol:
On the day of assay, proMMP13(1-268) (SEQ ID NO:7) purified from HEK293 cells and plasmin were diluted to 160 nM and 320 nM, respectively, in assay buffer. The reaction volume was 50 μL. […] The plate was sealed and incubated for 40 min at 37° C. […] Plasmin was not reactive towards P-126 substrate under these conditions.

T1 sequence (P14780 20-707 R574P): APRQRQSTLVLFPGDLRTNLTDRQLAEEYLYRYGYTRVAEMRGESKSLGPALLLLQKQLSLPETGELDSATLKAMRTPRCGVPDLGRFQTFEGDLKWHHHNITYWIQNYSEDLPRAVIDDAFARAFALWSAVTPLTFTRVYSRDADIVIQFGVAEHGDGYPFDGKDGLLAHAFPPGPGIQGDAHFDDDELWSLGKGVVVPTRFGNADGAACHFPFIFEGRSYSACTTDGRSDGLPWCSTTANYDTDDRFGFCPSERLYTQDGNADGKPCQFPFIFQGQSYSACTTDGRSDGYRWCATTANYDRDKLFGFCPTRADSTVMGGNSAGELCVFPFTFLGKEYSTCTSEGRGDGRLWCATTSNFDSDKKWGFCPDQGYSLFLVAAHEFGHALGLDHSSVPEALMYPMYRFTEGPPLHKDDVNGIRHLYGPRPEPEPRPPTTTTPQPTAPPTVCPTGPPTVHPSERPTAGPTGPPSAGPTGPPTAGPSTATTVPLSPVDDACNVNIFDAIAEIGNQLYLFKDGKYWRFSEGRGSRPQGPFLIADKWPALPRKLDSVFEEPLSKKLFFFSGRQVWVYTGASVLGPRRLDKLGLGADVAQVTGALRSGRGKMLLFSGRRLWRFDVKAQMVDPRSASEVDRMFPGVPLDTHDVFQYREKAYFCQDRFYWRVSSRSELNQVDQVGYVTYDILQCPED

In general, IC50 refers to the concentration needed to halve the response being measured. Low readings indicate greater potency, high ones weaker potency. With `Cc1nc(C2CCN(C)CC2)sc1-c1csc(Nc2cc(C(N)=O)ccc2OC(C)C)n1` [Example 157, 4-Isopropoxy-3-((4′-methyl-2′-(1-methylpiperidin-4-yl)-[4,5′-bithiazol]-2-yl)amino)benzamide.TFA], the IC50 in assay [1] is 33 nM; in assay [2] it was 860 nM.

These data come from US20120129842A1, “BISTHIAZOLE INHIBITORS OF PRO-MATRIX METALLOPROTEINASE ACTIVATION” (priority 2010, published 2012).
